Laboratory results: ChEMBL document CHEMBL5107949, “Design, synthesis, and antibacterial activity of N-(trifluoromethyl)phenyl substituted pyrazole derivatives” (RSC Med Chem, 2021)
Values after ≈ are worked out from the molar mass of the structure shown. Active and inactive are the calls of the source. The rule behind the calls is not given here.

Experiments:
[1] = system: Staphylococcus aureus; assay: Inhibition of lipid synthesis in Staphylococcus aureus ATCC 29213 at 0.25 times MIC preincubated for 30 mins followed by [3H]-glycerol and measured after 50 mins by [3H]-glycerol incorporation based beta scintillation counter analysis; format: functional; conditions: time 80 min; 1.333 h
[2] = system: Bacillus subtilis; assay: Antibacterial activity against antibiotic resistant Bacillus subtilis ATCC 6623 assessed as inhibition of bacterial growth by CLSI protocol based broth microdilution method; format: functional
[3] = system: Staphylococcus aureus; assay: Antibacterial activity against antibiotic susceptible Staphylococcus aureus ATCC 25923 assessed as inhibition of bacterial growth by CLSI protocol based broth microdilution method; format: functional
[4] = system: Enterococcus faecalis; assay: Anti-biofilm activity against Enterococcus faecalis ATCC 29212 assessed as biofilm eradication at 3.125 to 12.5 ug/ml incubated for 24 hrs by Calgary biofilm device assay; format: functional, organism-based; conditions: dose 3.125-12.5 µg/ml
[5] = system: Staphylococcus aureus; assay: Inhibition of RNA synthesis in Staphylococcus aureus ATCC 29213 at MIC preincubated for 30 mins followed by [3H]-uridine and measured after 30 mins by [3H]-uridine incorporation based beta scintillation counter analysis; format: functional; conditions: time 60 min; 1 h
[6] = system: Staphylococcus aureus; assay: Antibacterial activity against antibiotic resistant Staphylococcus aureus ATCC 33591 assessed as inhibition of bacterial growth by CLSI protocol based broth microdilution method; format: functional
[7] = system: Staphylococcus aureus; assay: Anti-biofilm activity against Staphylococcus aureus ATCC 25923 assessed as eradication of biofilm formation incubated for 24 hrs by Calgary biofilm device assay; format: functional; conditions: Staphylococcus aureus, ATCC 25923
[8] = system: Staphylococcus aureus; assay: Antibacterial activity against antibiotic resistant Staphylococcus aureus ATCC 33592 assessed as inhibition of bacterial growth by CLSI protocol based broth microdilution method; format: functional
[9] = system: Enterococcus faecalis; assay: Antibacterial activity against Enterococcus faecalis clinical isolate 1091720 assessed as inhibition of bacterial growth by CLSI protocol based broth microdilution method; format: functional
[10] = system: Enterococcus faecalis; assay: Antibacterial activity against Enterococcus faecalis clinical isolate 1091563 assessed as inhibition of bacterial growth by CLSI protocol based broth microdilution method; format: functional
[11] = system: Staphylococcus aureus; assay: Inhibition of RNA synthesis in Staphylococcus aureus ATCC 29213 at 0.5 times MIC preincubated for 30 mins followed by [3H]-uridine and measured after 30 mins by [3H]-uridine incorporation based beta scintillation counter analysis; format: functional; conditions: time 60 min; 1 h
[12] = system: Staphylococcus aureus; assay: Bactericidal activity against Staphylococcus aureus ATCC 700699 persisters assessed as log reduction in colony forming unit at 16 times MIC after 4 hrs by colony counting method; format: functional
[13] = system: Staphylococcus aureus; assay: Bactericidal activity against Staphylococcus aureus ATCC 700699 assessed as bacteria elimination at 4 times MIC and measured after 6 hrs by time-kill assay; format: functional
[14] = system: Staphylococcus aureus; assay: Inhibition of DNA synthesis in Staphylococcus aureus ATCC 29213 at 1 times MIC preincubated for 30 mins followed by [3H]-thymidine and measured after 30 mins by [3H]-thymidine incorporation based beta scintillation counter analysis; format: functional; conditions: time 60 min; 1 h
[15] = system: Staphylococcus aureus; assay: Inhibition of protein synthesis in Staphylococcus aureus ATCC 29213 at 0.25 times MIC preincubated for 30 mins followed by [3H]-leucine and measured after 40 mins by [3H]-leucine incorporation based beta scintillation counter analysis; format: functional; conditions: time 70.0 min

For `O=C(O)c1ccc(-c2nn(-c3ccc(C(F)(F)F)cc3)cc2CNc2ccc(Br)c(C(F)(F)F)c2)cc1`, the “inhibition (INH)” value [1] was 55.4%, the MIC [2] was 0.39 µg/mL (≈ 0.667 µM) and the MIC [3] was 0.78 µg/mL (≈ 1.33 µM). For the same molecule, the Activity [4] was “Active”, the “inhibition (INH)” value [5] was 75.5% and the MIC [6] was 1.56 µg/mL (≈ 2.67 µM). The MBEC [7] was 6.25 µg/mL, the MIC [8] was 0.78 µg/mL (≈ 1.33 µM) and the MIC [9] was 8 µg/mL (≈ 13.7 µM). For the same molecule, the MIC [10] was 8 µg/mL (≈ 13.7 µM), the “inhibition (INH)” value [11] was 38.1% and the “log(activity)” value [12] was greater than 2. For the same molecule, the Activity [13] was greater than 99.9%, the “inhibition (INH)” value [14] was 76% and the inhibition [15] was 55.4%.
